The source of these data is the NIST ThermoML archive (doi:10.1021/je301014d).

For series [1] the following is noted: Crystal; DTA.
Series [2] in a line: Molar enthalpy of transition or fusion. The note with it: Crystal; DSC.

Numbers after ± are expanded uncertainties.

`C[C@H]1OC(=O)[C@@H](C)OC1=O` [(3R,6R)-3,6-dimethyl-1,4-dioxane-2,5-dione]: the Normal melting temperature in series [1] amounted to 97.23 ± 1.1 °C. In series [2], the “Molar enthalpy of transition or fusion” value came to 3.87 ± 0.0956 kcal/mol.
The like results for `C[C@@H]1OC(=O)[C@H](C)OC1=O` [(3S,6S)-3,6-dimethyl-1,4-dioxane-2,5-dione] were, in that order, 97.82 ± 1.1 °C and 3.87 ± 0.0956 kcal/mol.
